Test results from the supplement of paper PMC10307832.

What was measured:
Experiment in all cases: relative viability (nuclei count vs DMSO), 5 days (fraction); higher = more cells survive
[1] = compound: CCn1c(-c2nonc2N)nc2c(C#CC(C)(C)O)ncc(OC[C@H]3CCCNC3)c21 + C[C@]1(O)C[C@@H](c2nc(-c3ccc4ccc(-c5ccccc5)nc4c3)c3c(N)nccn32)C1 [Linsitinib] (partner 1 µM)
How it was run: (§1)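 Relative viability equals treated-well nuclei counts divided by vehicle-well nuclei counts. Counts came from 4× images of lung cancer cell lines grown in 1536-well plates for 5 days after pin-tool dosing on the day after seeding. Dosing used one drug alone or a fixed anchor-drug dose plus five library-drug doses (not always all listed) in √10 steps, and values are medians of duplicate plates.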

[2] = compound: CCn1c(-c2nonc2N)nc2c(C#CC(C)(C)O)ncc(OC[C@H]3CCCNC3)c21 + O=C(c1cc(Cc2n[nH]c(=O)c3ccccc23)ccc1F)N1CCN(C(=O)C2CC2)CC1 [Olaparib] (partner 8 µM)
How it was run: as §1

[3] = compound: CCOC1=CC=CC=C1N=NC2=C(NN(C2=O)C3=NC(=CS3)C4=CC=CC=C4)C [BAM7] + O=C(CCCCCCC(=O)Nc1ccccc1)NO [Vorinostat] (partner 1 µM)
How it was run: as §1

[4] = compound: CCn1c(-c2nonc2N)nc2c(C#CC(C)(C)O)ncc(OC[C@H]3CCCNC3)c21 + CCNC(=O)c1noc(-c2cc(C(C)C)c(O)cc2O)c1-c1ccc(CN2CCOCC2)cc1 [Luminespib] (partner 0.01 µM)
How it was run: as §1

| Cell Line | relative viability ([1]; first compound 0.01 µM) | relative viability ([1]; first compound 0.03162 µM) | relative viability ([1]; first compound 0.1 µM) | relative viability ([1]; first compound 0.3162 µM) | relative viability ([1]; first compound 1 µM) | relative viability ([2]; first compound 0.01 µM) | relative viability ([2]; first compound 0.03162 µM) | relative viability ([2]; first compound 0.1 µM) | relative viability ([2]; first compound 0.3162 µM) | relative viability ([2]; first compound 1 µM) | relative viability ([3]; first compound 0.5 µM) | relative viability ([3]; first compound 5 µM) | relative viability ([3]; first compound 15.81 µM) | relative viability ([3]; first compound 50 µM) | relative viability ([4]; first compound 0.01 µM) | relative viability ([4]; first compound 0.03162 µM) | relative viability ([4]; first compound 0.1 µM) | relative viability ([4]; first compound 0.3162 µM) | relative viability ([4]; first compound 1 µM) |
| --- | --- | --- | --- | --- | --- | --- | --- | --- | --- | --- | --- | --- | --- | --- | --- | --- | --- | --- | --- |
| NCI-H1299 | 0.95 | 1.06 | 0.948 | 0.941 | 1.02 | 0.954 | 0.965 | 0.936 | 0.995 | 0.984 | – | – | – | – | – | – | – | – | – |
| EBC-1 | 0.947 | 0.776 | 0.837 | 0.732 | 0.632 | 0.652 | 0.706 | 0.676 | 0.516 | 0.557 | – | – | – | – | – | – | – | – | – |
| NCI-H2342 | – | – | – | – | – | 0.517 | 0.42 | 0.486 | 0.482 | 0.44 | 0.72 | 0.736 | 0.709 | 0.8 | 0.91 | 0.678 | 0.67 | 0.625 | 0.757 |
| NCI-H1792 | 0.523 | 0.567 | 0.464 | 0.491 | 0.461 | 0.53 | 0.502 | 0.473 | 0.374 | 0.589 | – | – | – | – | 0.593 | – | 0.566 | 0.416 | 0.47 |
| ChaGo-K-1 | – | – | – | – | – | 0.397 | 0.443 | 0.408 | 0.408 | 0.398 | 0.627 | 0.787 | 0.701 | 0.742 | 0.564 | 0.588 | 0.655 | 0.535 | 0.505 |
| A549 | 0.681 | 0.624 | 0.444 | 0.505 | 0.647 | 0.407 | 0.351 | 0.318 | 0.301 | 0.257 | – | – | – | – | – | – | – | – | – |
| NCI-H1563 | 1.18 | 1.07 | 1.15 | 1.08 | 0.96 | – | – | – | – | – | – | – | – | – | 0.466 | 0.641 | 0.5 | 0.463 | 0.505 |
| SW 900 | – | – | – | – | – | 0.871 | 0.853 | 0.742 | 0.88 | 0.864 | – | 0.461 | – | 0.589 | 0.189 | 0.185 | 0.18 | 0.16 | 0.162 |
| HCC-78 | 0.502 | 0.496 | 0.5 | 0.424 | 0.546 | 0.739 | 0.732 | 0.827 | 0.794 | 0.564 | 0.382 | 0.455 | 0.436 | 0.459 | – | – | – | – | – |
| IA-LM | 0.62 | 0.554 | 0.658 | 0.518 | 0.464 | 0.942 | 0.791 | 0.937 | 1.3 | 0.786 | 0.874 | 1.03 | 0.389 | 0.553 | – | – | – | – | – |
| NCI-H1703 | 0.939 | 0.836 | 0.594 | 0.449 | 0.358 | 0.406 | 0.506 | 0.468 | 0.587 | 0.31 | – | – | – | – | – | – | – | – | – |
| NCI-H1648 | – | – | – | – | – | 0.937 | 0.851 | 0.767 | 0.604 | 0.567 | 0.283 | 0.6 | 0.408 | 0.348 | – | – | – | – | – |
